Assay results taken from patent US12410160B2 (Gilead Sciences, Inc., priority 2021, dated 2025).
Read-outs that look alike come from different tables or passages of the source.

Legend:
human KHK-C = human KHK-C (Homo sapiens (Human), UniProt P50053); assay: KHK Biochemical Assay (IC50), ADP-Glo, KHK-C; details: average of at least two separate assays
Outline: (§1)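 His-tagged enzyme expressed in BL21 (DE3), Ni-NTA purified. Compounds, serially diluted 1:3 in DMSO, pre-incubated 30 min with enzyme in 50 mM Hepes pH 7.4, 140 mM KCl, 5 mM MgCl2, 0.01% Triton-X, then ATP and fructose added; 4 h at room temperature. ADP formation read by ADP-Glo luminescence.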

HepG2 cells = assay: F1P Cell-Based Assay (EC50), 13C6-fructose-1-phosphate in HepG2 cells (cell culture medium or 50% human plasma)
[1] = molecular target: KHK-C expressed in NRK-52E cells (Homo sapiens (Human), UniProt P50053); assay: KHK-C Cell-based Assay (EC50), NRK CTG, fructose-mediated ATP-depletion
KHK-C expressed in NRK-52E cells, sequence (P50053 whole entry): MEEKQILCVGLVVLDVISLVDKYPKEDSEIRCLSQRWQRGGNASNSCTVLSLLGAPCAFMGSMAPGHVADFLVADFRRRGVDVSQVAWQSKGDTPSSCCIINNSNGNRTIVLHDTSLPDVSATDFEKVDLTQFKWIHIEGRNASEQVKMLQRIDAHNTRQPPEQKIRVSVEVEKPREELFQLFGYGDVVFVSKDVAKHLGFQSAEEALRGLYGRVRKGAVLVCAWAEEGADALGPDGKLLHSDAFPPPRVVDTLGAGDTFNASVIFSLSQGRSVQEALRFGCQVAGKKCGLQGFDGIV

human KHK-A = human KHK-A (Homo sapiens (Human), UniProt P50053); assay: KHK Biochemical Assay (IC50), ADP-Glo, KHK-A; details: average of at least two separate assays
human KHK-A, sequence (P50053 other isoform, or with tags, fused parts or gaps): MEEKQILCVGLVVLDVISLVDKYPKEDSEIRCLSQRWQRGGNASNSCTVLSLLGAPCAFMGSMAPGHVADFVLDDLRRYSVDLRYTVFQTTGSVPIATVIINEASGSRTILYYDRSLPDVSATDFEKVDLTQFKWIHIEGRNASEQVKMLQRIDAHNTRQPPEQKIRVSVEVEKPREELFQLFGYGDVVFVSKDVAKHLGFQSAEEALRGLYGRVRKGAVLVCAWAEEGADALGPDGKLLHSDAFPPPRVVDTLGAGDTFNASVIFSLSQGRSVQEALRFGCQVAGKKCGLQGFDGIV
Outline: as §1

[2] = Homo sapiens, HepG2, HepG2 cells, 50% human plasma, read-out: F1P 50% HP EC50
[3] = Homo sapiens, HepG2, read-out: F1P 10% FBS EC50, HepG2 cells, cell culture medium (10% FBS)
[4] = HepG2 cells, 50% human plasma, read-out: F1P 50% HP EC50
[5] = read-out: F1P 10% FBS EC50, HepG2 cells, cell culture medium (10% FBS)
[6] = read-out: NRK CTG EC50, NRK-52E cells, Cell-Titer Glo, 25 mM fructose
[7] = read-out: NRK CTG EC50, NRK-52E cells, Cell-Titer Glo, 25 mM fructose, 48 hours
[8] = read-out: NRK CTG EC50, NRK-52E cells, fructose-mediated ATP-depletion, Cell-Titer Glo

human KHK-C, sequence (P50053 whole entry): as the sequence (P50053 whole entry) above

Molecule	IC50 (human KHK-C) [nM]	EC50 (HepG2 cells; [2]) [nM]	EC50 (HepG2 cells; [3]) [nM]	EC50 [1] [nM]	other results
C[C@H]1[C@H](O)CN1c1nc(-c2cccc([S@](C)(=N)=O)c2)c2c(n1)C(F)(F)CC2 (single isomer, unassigned) [Example 493]	11.7	41.9	32.4	52.7	–
COc1ccc(-c2nc(N3C[C@@H](O)[C@@H]3C)nc3c2CCC3(F)F)cc1[S@](C)(=N)=O (single isomer, unassigned) [Example 496]	7.6	23.9	9	65.4	IC50 (human KHK-A): 14.4 nM
C[C@H]1[C@H](O)CN1c1nc(-c2ccc(OC(F)F)c([S@@](C)(=N)=O)c2)c2c(n1)C(F)(F)CC2 (single isomer, unassigned) [Example 533]	3.8	8.9	7.3	18.2	IC50 (human KHK-A): 4.4 nM
C[C@H]1[C@H](O)CN1c1nc(-c2ccc3c(c2)CC[C@@]32COCC(=O)N2)c2c(n1)C(F)(F)CC2 (single isomer, unassigned) [Example 549]	0.1	17.4	5.4	3.8	IC50 (human KHK-A): 5.4 nM
C[C@H]1[C@H](O)CN1c1nc(-c2ccc3c(c2)COC[C@@]32COC(=O)N2)c2c(n1)C(F)(F)CC2 (single isomer, unassigned) [Example 555]	1.2	–	–	–	EC50 (HepG2 cells; [4]): 117 nM; EC50 (HepG2 cells; [5]): 59.7 nM; EC50 [1, 6]: 29 nM; IC50 (human KHK-A): 30.5 nM
C[C@H]1[C@H](O)CN1c1nc(-c2ccc3c(c2)COC[C@]32COC(=O)N2)c2c(n1)C(F)(F)CC2 (single isomer, unassigned) [Example 556]	26.6	> 500	210	201	IC50 (human KHK-A): 42.1 nM
CC1OC[C@@]2(COc3cc(-c4nc(N5C[C@@H](O)[C@@H]5C)nc5c4CCC5(F)F)ccc32)NC1=O (single isomer, unassigned) [Example 559]	0.2	–	–	–	EC50 (HepG2 cells; [4]): 16.3 nM; EC50 (HepG2 cells; [5]): 5.6 nM; EC50 [1, 6]: 3.2 nM; IC50 (human KHK-A): 7.8 nM
C[C@H]1[C@H](O)CN1c1nc(-c2ccc3c(c2)C(C)(C)C[C@@H]3NS(C)(=O)=O)c2c(n1)C(F)(F)CC2 (single isomer, unassigned) [Example 632]	0.5	> 500	10.2	10.3	–
CCN1C(=O)N[C@]2(COc3cc(-c4nc(N5C[C@@H](O)[C@@H]5C)nc5c4CCC5(F)F)ccc32)C1=O (single isomer, unassigned) [Example 697]	0.1	23.7	20.1	3.7	IC50 (human KHK-A): 8.6 nM
CCN1C(=O)N[C@@]2(COc3cc(-c4nc(N5C[C@@H](O)[C@@H]5C)nc5c4CCC5(F)F)ccc32)C1=O (single isomer, unassigned) [Example 698]	5.6	–	–	–	EC50 (HepG2 cells; [4]): 267 nM; EC50 (HepG2 cells; [5]): 152 nM; EC50 [1, 6]: 71.5 nM; IC50 (human KHK-A): 47.4 nM
C[C@H]1[C@H](O)CN1c1nc(-c2ccc3c(c2)[S@](=N)(=O)CCO3)c2c(n1)C(F)(F)CC2 (single isomer, unassigned) [Example 820]	–	–	–	–	IC50 (human KHK-C; ADP-Glo): 6.2 nM; EC50 (HepG2 cells; [4]): 67.8 nM; EC50 (HepG2 cells; [5]): 20.3 nM; EC50 [1, 7]: 26.5 nM; IC50 (human KHK-A; ADP-Glo): 14.3 nM
C[C@H]1[C@H](O)CN1c1nc(-c2ccc3c(c2)[S@@](=N)(=O)CCO3)c2c(n1)C(F)(F)CC2 (single isomer, unassigned) [Example 821]	–	–	–	–	IC50 (human KHK-C; ADP-Glo): 5 nM; EC50 (HepG2 cells; [4]): 75.4 nM; EC50 (HepG2 cells; [5]): 20 nM; EC50 [1, 7]: 42.2 nM
C[C@H]1[C@H](O)CN1c1nc(-c2cnc3c(c2)OC[C@@H]3NS(C)(=O)=O)c2c(n1)C(F)(F)CC2 (single isomer, unassigned) [Example 823]	–	–	–	–	IC50 (human KHK-C; ADP-Glo): 6.4 nM; EC50 (HepG2 cells; [4]): 216 nM; EC50 (HepG2 cells; [5]): 90.6 nM; EC50 [1, 7]: 56.3 nM; IC50 (human KHK-A; ADP-Glo): 48.2 nM
C[C@H]1CCN1c1nc(-c2ccc3c(c2)OCCNC3=O)c2c(n1)C(F)(F)CC2 [Example 165, (S)-8-(7,7-difluoro-2-(2-methylazetidin-1-yl)-6,7-dihydro-5H-cyclopenta[d]pyrimidin-4-yl)-3,4-dihydrobenzo[f][1,4]oxazepin-5(2H)-one]	–	49	9.7	2.3	IC50 (human KHK-C; ADP-Glo): 0.8 nM
C[C@H]1CCN1c1nc2c(c(-c3ccc(C4(O)CS(=O)(=O)C4)cc3)n1)CCC2 [Example 451, (S)-3-hydroxy-3-(4-(2-(2-methylazetidin-1-yl)-6,7-dihydro-5H-cyclopenta[d]pyrimidin-4-yl)phenyl)thietane 1,1-dioxide]	14.1	333	77.6	8.7	–
C[C@H]1CCN1c1nc(-c2ccc3c(c2)OC[C@@H]3NS(C)(=O)=O)c2c(n1)C(F)(F)CC2 [Example 528, N—((R)-6-(7,7-difluoro-2-((S)-2-methylazetidin-1-yl)-6,7-dihydro-5H-cyclopenta[d]pyrimidin-4-yl)-2,3-dihydrobenzofuran-3-yl)methanesulfonamide]	0.2	50.2	2.5	3.4	–
C[C@H]1[C@H](O)CN1c1nc(-c2ccc3c(c2)COCC32CCC(=O)N2)c2c(n1)C(F)(F)CC2 (some centres unmarked) [Example 639]	–	190	66.3	35	–
C[C@H]1CCN1c1nc(-c2ccc(C3(N)CC(F)(F)C3)cc2)c2c(n1)C(F)(F)CC2 [Example 648, 1-[4-[7,7-difluoro-2-[(2S)-2-methylazetidin-1-yl]-5,6-dihydrocyclopenta[d]pyrimidin-4-yl]phenyl]-3,3-difluoro-cyclobutanamine]	1.2	27.6	3.9	7.1	–
C[C@H]1CCN1c1nc(-c2ccc([C@@H](N)C(F)F)cc2)c2c(n1)C(F)(F)CC2 [Example 649, (1R)-1-[4-[7,7-difluoro-2-[(2S)-2-methylazetidin-1-yl]-5,6-dihydrocyclopenta[d]pyrimidin-4-yl]phenyl]-2,2-difluoro-ethanamine]	2.4	57	12.9	8.6	–
C[C@H]1[C@H](O)CN1c1nc(-c2ccc3c(c2)OCCC3NS(C)(=O)=O)c2c(n1)C(F)(F)CC2 (stereo partly drawn) [Example 757, N-[7-[7,7-difluoro-2-[(2S,3R)-3-hydroxy-2-methyl-azetidin-1-yl]-5,6-dihydrocyclopenta[d]pyrimidin-4-yl]chroman-4-yl]methanesulfonamide]	2.6	59.7	20.6	32.4	–
C[C@H]1CCN1c1nc(-c2ccc3c(c2)OCC3NS(C)(=O)=O)c2c(n1)C(F)(F)CC2 (stereo partly drawn) [Example 758, N-[6-[7,7-difluoro-2-[(2S)-2-methylazetidin-1-yl]-5,6-dihydrocyclopenta[d]pyrimidin-4-yl]-2,3-dihydrobenzofuran-3-yl]methanesulfonamide]	0.5	41	6.5	2.2	–
(S)-6-(2-(2-methylazetidin-1-yl)-6,7-dihydro-5H-cyclopenta[d]pyrimidin-4-yl)pyridine-2-sulfonamide [Example 223]	–	–	–	–	IC50 (human KHK-C; ADP-Glo): 26.9 nM; EC50 [1, 8]: 74.1 nM; IC50 (human KHK-A; ADP-Glo): 33.7 nM
ethyl N-[[4-[2-[(2S)-2-methylazetidin-1-yl]-6,7-dihydro-5H-cyclopenta[d]pyrimidin-4-yl]phenyl]methyl]carbamate [Example 359]	–	–	–	–	IC50 (human KHK-C; ADP-Glo): 89.7 nM; EC50 [1, 8]: 495 nM; IC50 (human KHK-A; ADP-Glo): 72.4 nM

Now from value to molecule, other results behind:

IC50 (human KHK-C) [nM]	EC50 (HepG2 cells; [2]) [nM]	EC50 (HepG2 cells; [3]) [nM]	EC50 [1] [nM]	Molecule	other results
3.3	129	28.1	27.4	C[C@H]1[C@H](O)CN1c1nc(-c2cc3c(c(CNS(C)(=O)=O)c2)OCC3)c2c(n1)C(F)(F)CC2 [Example 761, N-[[5-[7,7-difluoro-2-[(2S,3R)-3-hydroxy-2-methyl-azetidin-1-yl]-5,6-dihydrocyclopenta[d]pyrimidin-4-yl]-2,3-dihydrobenzofuran-7-yl]methyl]methanesulfonamide]	–
–	41.8	38.6	696	C[C@H]1[C@H](O)CN1c1nc(-c2ccc3c(c2)O[C@@H](CO)CNC3=O)c2c(n1)C(F)(F)CC2 [Example 808, (R)-8-(7,7-difluoro-2-((2S,3R)-3-hydroxy-2-methylazetidin-1-yl)-6,7-dihydro-5H-cyclopenta[d]pyrimidin-4-yl)-2-(hydroxymethyl)-3,4-dihydrobenzo[f][1,4]oxazepin-5(2H)-one]	IC50 (human KHK-C; ADP-Glo): 6.3 nM
–	2.3	0.9	5.6	COc1ccc(-c2nc(N3CC[C@@H]3C(F)(F)F)nc3c2CCC3(F)F)cc1[S@@](C)(=N)=O [Example 825, (S)-(5-(7,7-difluoro-2-((R)-2-(trifluoromethyl)azetidin-1-yl)-6,7-dihydro-5H-cyclopenta[d]pyrimidin-4-yl)-2-methoxyphenyl)(imino)(methyl)-λ^6-sulfanone]	–
–	–	–	34.6	COc1ccc(-c2nc(N3C[C@@H](O)[C@@H]3C)nc3c2CCC3(F)F)cc1S(C)(=O)=O [Example 882, (2S,3R)-1-(7,7-difluoro-4-(4-methoxy-3-(methylsulfonyl)phenyl)-6,7-dihydro-5H-cyclopenta[d]pyrimidin-2-yl)-2-methylazetidin-3-ol]	IC50 (human KHK-C; ADP-Glo): 5.1 nM; IC50 (human KHK-A; ADP-Glo): 4.5 nM
